Results reported in patent publication US20120053148A1, “INHIBITORS OF HEPATITIS C VIRUS” (GILEAD SCIENCES, INC., priority 2010, published 2012).

Experiments:
HCV Replicon IA = assay: HCV replicon assay in Huh-7 cells, genotype 1a; type: cell-based; conditions: Hepatitis C virus, 72 h, Huh-7 HCV replicon cells, 3 days
HCV Replicon IB = assay: HCV replicon assay in Huh-7 cells, genotype 1b (Rluc luciferase readout); type: cell-based, hepatitis C virus; conditions: Hepatitis C virus, 72 h; 10 μM; Huh-7 HCV replicon cells, 3 days; read-out: % inhibition @ 10 μM HCV Replicon IB

## Cc1cc(C(=O)NCc2cccs2)nc2c(C(F)(F)F)cc(-c3ccoc3)cc12 [Compound 28]
HCV Replicon IA
  inhibition at 10 µM: 99.8%
HCV Replicon IB
  inhibition at 10 µM: 100%

## O=C(NCc1ccncc1)c1cc(O)c2cc(-c3cn[nH]c3)cc(C(F)(F)F)c2n1 [Compound 13]
HCV Replicon IA
  inhibition at 10 µM: 43.4%
HCV Replicon IB
  inhibition at 10 µM: 20.7%

## O=C(NCc1ccncn1)c1cc(O)c2cc(-c3cn[nH]c3)cc(C(F)(F)F)c2n1 [Compound 15]
HCV Replicon IA
  inhibition at 10 µM: 59.3%
HCV Replicon IB
  inhibition at 10 µM: 47.3%

## O=C(NCc1cocn1)c1cc(O)c2cc(-c3cn[nH]c3)cc(C(F)(F)F)c2n1 [Compound 10]
HCV Replicon IA
  inhibition at 10 µM: 80.7%
HCV Replicon IB
  inhibition at 10 µM: 74.3%

## O=C(NCc1cccs1)c1nc(O)c2cc(-c3cn[nH]c3)cc(C(F)(F)F)c2n1 [Compound 49]
HCV Replicon IA
  inhibition at 10 µM: 99.7%
HCV Replicon IB
  inhibition at 10 µM: 99%

## CC(NC(=O)c1cc(O)c2cc(-c3cn[nH]c3)cc(C(F)(F)F)c2n1)c1ccccn1 (stereo not drawn) [Compound 20]
HCV Replicon IA
  inhibition at 10 µM: 86.1%
HCV Replicon IB
  inhibition at 10 µM: 89%

## O=C(NCc1ccccc1)c1cc(O)c2cc(-c3cn[nH]c3)cc(C(F)(F)F)c2n1 [Compound 5]
HCV Replicon IA
  inhibition at 10 µM: 99.2%
HCV Replicon IB
  inhibition at 10 µM: 99.2%

## O=C(NCc1ccccn1)c1cc(O)c2cc(-c3ccccc3F)cc(C(F)(F)F)c2n1 [Compound 70]
HCV Replicon IA
  inhibition at 10 µM: 69.1%
HCV Replicon IB
  inhibition at 10 µM: 82%

## CNc1nc(C(=O)NCc2cccs2)nc2c(C(F)(F)F)cc(-c3ccccc3)cc12 [Compound 52]
HCV Replicon IA
  inhibition at 10 µM: 99.6%
HCV Replicon IB
  inhibition at 10 µM: 100%

## Nc1cc(O)c2cc(-c3ccccc3)cc(C(F)(F)F)c2n1 [Compound 39]
HCV Replicon IA
  inhibition at 10 µM: 92.5%
HCV Replicon IB
  inhibition at 10 µM: 65%

## O=C(NCc1cccnc1)c1cc(O)c2cc(-c3cn[nH]c3)cc(C(F)(F)F)c2n1 [Compound 11]
HCV Replicon IA
  inhibition at 10 µM: 63.2%
HCV Replicon IB
  inhibition at 10 µM: 66.1%

## Cc1cccnc1CNC(=O)c1cc(O)c2cc(-c3cn[nH]c3)cc(C(F)(F)F)c2n1 [Compound 17]
HCV Replicon IA
  inhibition at 10 µM: 98.3%
HCV Replicon IB
  inhibition at 10 µM: 96.4%

## O=C(NCc1cccs1)c1cc(O)c2cc(-c3ccccc3)c(F)c(C(F)(F)F)c2n1 [Compound 59]
HCV Replicon IA
  inhibition at 10 µM: 92.7%
HCV Replicon IB
  inhibition at 10 µM: 97.2%

## Nc1cc(C(=O)NCc2cccs2)nc2c(C(F)(F)F)cc(-c3ccccc3)cc12 [Compound 66]
HCV Replicon IA
  inhibition at 10 µM: 99.9%
HCV Replicon IB
  inhibition at 10 µM: 99.9%

## Nc1nc(C(=O)NCc2cccs2)nc2c(C(F)(F)F)cc(-c3ccccc3)cc12 [Compound 51]
HCV Replicon IA
  inhibition at 10 µM: 100%
HCV Replicon IB
  inhibition at 10 µM: 100%

## C[C@@H](NC(=O)c1cc(O)c2cc(-c3cn[nH]c3)cc(C(F)(F)F)c2n1)c1ccccc1 (single isomer, unassigned) [Compound 18]
HCV Replicon IA
  inhibition at 10 µM: 55.3%
HCV Replicon IB
  inhibition at 10 µM: 55.8%

## Oc1cc(-c2nnc(Nc3ccccc3)o2)nc2c(C(F)(F)F)cc(-c3ccccc3)cc12 [Compound 54]
HCV Replicon IA
  inhibition at 10 µM: 97.9%
HCV Replicon IB
  inhibition at 10 µM: 98.7%

## O=C(NCc1cccs1)c1nc(O)c2cc(-c3ccoc3)cc(C(F)(F)F)c2n1 [Compound 48]
HCV Replicon IA
  inhibition at 10 µM: 99.4%
HCV Replicon IB
  inhibition at 10 µM: 99.9%

## COc1cc(C(=O)NCc2cccs2)nc2c(C(F)(F)F)cc(-c3ccoc3)cc12 [Compound 27]
HCV Replicon IA
  inhibition at 10 µM: 65.5%
HCV Replicon IB
  inhibition at 10 µM: 80.3%

## O=C(NCc1cccs1)c1cc(O)c2cc(-c3ccoc3)cc(C(F)(F)F)c2n1 [Compound 7]
HCV Replicon IA
  inhibition at 10 µM: 99.2%
HCV Replicon IB
  inhibition at 10 µM: 99.8%

## Nc1cc(C(=O)NCc2ccccn2)nc2c(C(F)(F)F)cc(-c3ccccc3)cc12 [Compound 68]
HCV Replicon IA
  inhibition at 10 µM: 99.9%
HCV Replicon IB
  inhibition at 10 µM: 99.7%

## O=C(NCc1cccs1)c1nc(O)c2cc(-c3ccccc3)cc(C(F)(F)F)c2n1 [Compound 47, 4-oxo-6-phenyl-8-trifluoromethyl-3,4-dihydro-quinazoline-2-carboxylic acid (thiophen-2-ylmethyl)-amide]
HCV Replicon IA
  inhibition at 10 µM: 99.7%
HCV Replicon IB
  inhibition at 10 µM: 99.8%

## O=C(NCc1cccs1)c1cc(Cl)c2cc(-c3ccoc3)cc(C(F)(F)F)c2n1 [Compound 25]
HCV Replicon IA
  inhibition at 10 µM: 98.7%
HCV Replicon IB
  inhibition at 10 µM: 99.7%

## O=C(NCc1ccc(Cl)s1)c1cc(O)c2cc(-c3ccoc3)cc(C(F)(F)F)c2n1 [Compound 23]
HCV Replicon IA
  inhibition at 10 µM: 99.9%
HCV Replicon IB
  inhibition at 10 µM: 99.4%

## O=C(Nc1ccccc1)c1cc(O)c2cc(-c3cn[nH]c3)cc(C(F)(F)F)c2n1 [Compound 19]
HCV Replicon IA
  inhibition at 10 µM: 98.5%
HCV Replicon IB
  inhibition at 10 µM: 71.1%

## O=C(c1cc(O)c2cc(-c3ccoc3)cc(C(F)(F)F)c2n1)N1CCC(c2ccc(F)cc2)CC1 [Compound 30]
HCV Replicon IA
  inhibition at 10 µM: 95.3%
HCV Replicon IB
  inhibition at 10 µM: 74.9%

## O=C(NCc1cccs1)c1cc(Cl)c2cc(-c3ccccc3)cc(C(F)(F)F)c2n1 [Compound 65]
HCV Replicon IA
  inhibition at 10 µM: 97.5%
HCV Replicon IB
  inhibition at 10 µM: 99.5%

## O=C(NCc1cccs1)c1cc(O)c2cc(-c3ccccc3)cc(C(F)(F)F)c2n1 [Compound 34]
HCV Replicon IA
  inhibition at 10 µM: 97.8%
HCV Replicon IB
  inhibition at 10 µM: 98.3%

## O=C(NCc1ccccn1)c1cc(Cl)c2cc(-c3ccccc3)cc(C(F)(F)F)c2n1 [Compound 67]
HCV Replicon IA
  inhibition at 10 µM: 96.9%
HCV Replicon IB
  inhibition at 10 µM: 97.8%

## O=C(Cc1cccs1)Nc1cc(O)c2cc(-c3ccccc3)cc(C(F)(F)F)c2n1 [Compound 40]
HCV Replicon IA
  inhibition at 10 µM: 99.7%
HCV Replicon IB
  inhibition at 10 µM: 97.6%

## O=C(c1cc(O)c2cc(-c3ccoc3)cc(C(F)(F)F)c2n1)N1CC=C(c2ccccc2)CC1 [Compound 29]
HCV Replicon IA
  inhibition at 10 µM: 87.4%
HCV Replicon IB
  inhibition at 10 µM: 37.7%

## O=C(NCc1nccs1)c1cc(O)c2cc(-c3cn[nH]c3)cc(C(F)(F)F)c2n1 [Compound 9]
HCV Replicon IA
  inhibition at 10 µM: 98.1%
HCV Replicon IB
  inhibition at 10 µM: 98.5%

## O=C(NCc1cncs1)c1cc(O)c2cc(-c3cn[nH]c3)cc(C(F)(F)F)c2n1 [Compound 8]
HCV Replicon IA
  inhibition at 10 µM: 98.8%
HCV Replicon IB
  inhibition at 10 µM: 94%

## O=C(NCc1cccs1)c1nc(N2CCCC2)c2cc(-c3ccccc3)cc(C(F)(F)F)c2n1 [Compound 53]
HCV Replicon IA
  inhibition at 10 µM: 91.4%
HCV Replicon IB
  inhibition at 10 µM: 86.2%

## O=C(c1cc(O)c2cc(-c3ccoc3)cc(C(F)(F)F)c2n1)N1CCC(c2cccc(F)c2)CC1 [Compound 31]
HCV Replicon IA
  inhibition at 10 µM: 98.1%
HCV Replicon IB
  inhibition at 10 µM: 58.1%

## O=C(NCCc1ccccc1)c1cc(O)c2cc(-c3cn[nH]c3)cc(C(F)(F)F)c2n1 [Compound 16]
HCV Replicon IA
  inhibition at 10 µM: 93%
HCV Replicon IB
  inhibition at 10 µM: 96.7%

## O=C(NCc1cccs1)c1cc(O)c2c(Cl)c(-c3ccccc3)cc(C(F)(F)F)c2n1 [Compound 64]
HCV Replicon IA
  inhibition at 10 µM: 79.2%
HCV Replicon IB
  inhibition at 10 µM: 88.2%

## O=C(NCc1ccccn1)c1cc(O)c2cc(-c3cn[nH]c3)cc(C(F)(F)F)c2n1 [Compound 12]
HCV Replicon IA
  inhibition at 10 µM: 98.2%
HCV Replicon IB
  inhibition at 10 µM: 99.2%

## O=C(NCc1cccs1)c1cc(O)c2cc(-c3cn[nH]c3)cc(C(F)(F)F)c2n1 [Compound 36]
HCV Replicon IA
  inhibition at 10 µM: 99.3%
HCV Replicon IB
  inhibition at 10 µM: 99.4%
